Molecules are shown by their SMILES. A value given as a limit tells only on which side of the number the result lay.

For experiment [1], the target named is T1, HER-2 (Homo sapiens, UniProt P04626).
T1 construct: the nucleotides encoding amino acids 679 to 1255 of HER-2; purchased Proqinase (Freiburg, Germany)
Description: HER-2 Kinase Assay. The class given is biochemical. The settings on record: for inhibition at 1 µM: test concentration of 1 μM, read-out: HER-2 percent inhibition. Here is the method: HER-2 kinase was purified at Proqinase (Freiburg, Germany) from a construct that consisted of a fusion of GST (Glutathione-S-Transferase), HIS6-Thrombin and the nucleotides encoding amino acids 679 to 1255 of HER-2.
A mixture of a 10× kinase reaction buffer (600 mM Hepes at pH 7.5, 30 mM Magnesium Chloride, 0.03 mM Sodium Vanadate and 500 μg/mL PEG 20,000), DTT (1.2 mM final from a 10 mM stock), ATP (1 μM from a 10 mM stock), biotinylated polyGluTyr (1.5 ng/μL final from stock of 1 μg/μL prepared by Upstate Biotechnologies, Lake Placid, N.Y.), Manganese Chloride (3 mM final from a 1 M stock), γ-^33P-ATP (10 μCi/μL stock) and water (70 μL/well) was added to each well of a Streptavidin Flashplate (Cat. #SMP103, NEN, Boston, Mass.).
Test compound stock (1 μL) was added to the appropriate wells. Diluted GSTHER2 kinase (6.7 ng/μL diluted into 50 mM Tris-HCl at pH 8.0 and 0.1% bovine serum albumin) (30 μL) was added (total volume of 200 ng/well) to initiate the reactions.
The reaction plates were incubated at 30° C. for 1 hr. The reaction was terminated by aspiring the reaction mixture from the plate wells and washing the wells three times with a 1×PBS stop buffer (300 μL) and 100 mM EDTA. After the final wash, the same stop buffer (200 μL) was again added to the wells. The plates were then sealed and read on the TopCount scintillation counter.
(§1) The IC50 was derived according to the procedure described in Example 2. For those compounds without an IC50, the percent inhibition results are shown at a test concentration of 1 μM.

The target in experiment [2] is T2, Aurora-A (Mus musculus, UniProt P97477).
T2 construct: followed by the full length protein encoding the murine Aurora-A; polyhistidine (N); made in house; host or cells: sf9 insect cells
T2 sequence (P97477 1-395): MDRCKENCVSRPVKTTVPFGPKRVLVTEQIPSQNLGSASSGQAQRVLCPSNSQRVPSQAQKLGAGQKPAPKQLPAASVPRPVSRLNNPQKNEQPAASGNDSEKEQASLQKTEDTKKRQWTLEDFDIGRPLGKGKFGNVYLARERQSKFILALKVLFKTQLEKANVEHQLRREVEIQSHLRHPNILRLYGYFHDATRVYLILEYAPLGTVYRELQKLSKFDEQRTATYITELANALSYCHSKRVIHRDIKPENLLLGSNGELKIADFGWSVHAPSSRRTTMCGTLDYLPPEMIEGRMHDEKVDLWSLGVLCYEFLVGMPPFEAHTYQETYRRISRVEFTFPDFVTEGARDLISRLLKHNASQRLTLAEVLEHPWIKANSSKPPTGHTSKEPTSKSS
In words: Aurora-A Screening Assay. The class given is biochemical, murine. The settings on record: for inhibition at 1 µM: test concentration of 1 μM, read-out: Aurora-A percent inhibition. As for the experimental part:
(§2) A kinase reaction mixture was prepared containing 50 mM Tris-HCl at pH 8, 10 mM, MgCl20.1 mM […], 1 mM DTT, 10 μM ATP, 0.025 μM biotinylated histone-H1 peptide substrate and 0.2 μCuries per well ^33P-γ-ATP (2000-3000 Ci/mmol). 70 μL of the kinase reaction mixture was dispensed into the well of a Streptavidin FlashPlate.
(§3) Test compound stock in 100% DMSO (1 μL) was added to the wells resulting in a final concentration of 1% DMSO in the reaction with a 100 μL final reaction volume. Each enzyme was diluted in 50 mM Tris-HCl pH=8.0, 0.1% BSA and 30 μL was added to each well to initiate the reaction. The reaction was incubated for one hour at 30° C. At the end of the 1 hr incubation, the reaction was terminated by aspirating the mixture from the plate and washing the wells twice with PBS containing 100 mM EDTA. The biotinylated peptide substrate became immobilized on the Flashplate^198 and the incorporation of ^33P-γ-ATP was measured by reading the plate on a scintillation counter. Inhibition of the enzymatic activity was measured by observing a reduced amount of ^33P-γ-ATP incorporated into the immobilized peptide.
Aurora-A is a fusion protein containing a polyhistidine tag at the N terminus followed by the full length protein encoding the murine Aurora-A (Accession number GB BC014711) expressed and purified from sf9 insect cells. The assay used 400 ng of the N-terminal biotinylated peptide biotin-GRTGRRNSI-amide (Aurora-A) per well.
as §1

Experiment [3] has as its target T3, EGFR (Homo sapiens, UniProt P00533).
T3 construct: The intracellular portion of EGFR started at nucleotide 2189 (corresponding to amino acid 667) and ended at the termination codon; made in house; host or cells: Sf9 insect cells (baculovirus)
In words: EGFR Kinase Assay. The experiment is classed as biochemical. The settings on record: for inhibition at 2 µM: test concentration of 2 μM, read-out: EGFR percent inhibition. The text has this: The EGFR kinase used was a fusion of Glutathione-S-Transferase (GST) and a PCR amplified intracellular portion of EGFR (NM_005228). The intracellular portion of EGFR started at nucleotide 2189 (corresponding to amino acid 667) and ended at the termination codon. The portion was PCR amplified with primers that added the lambda attB sequences to each end, recombined into an entry vector, then into a GST destination vector (as described in Gateway Technologies Manual by Invitrogen Corporation, Carlsbad, Calif.).
The destination vector was recombined in the DH10BAC strain of bacteria to produce a bacmid. The bacmid was transfected into Sf 9 cells and the supernatant containing the baculovirus was collected. The GSTEGFR protein was purified using large cultures of Sf 9 cells infected with stock virus. After an appropriate period of time, the cells were collected and lysed. The GSTEGFR was then purified from the lysate on Glutathione-Sepharose columns (as described by Amersham Biosciences, Buckinghamshire, United Kingdom).
The EGFR substrate was prepared by biotinylating polyGluTyr (128 mg) (Sigma, St. Louis, Mo.) in a 1×PBS buffer incubated together with a 12-fold molar excess of Sulfo-NHS-LC-Biotin on ice for at least 2 hrs. The free biotin was separated from the biotinylated polyGluTyr on a gel filtration column.
A mixture of a 10× kinase buffer (500 mM Tris at pH 8.0, 100 mM Magnesium Chloride and 1 mM Sodium Vanadate), DTT (1 mM final from 500 mM stock), ATP (5 μM final from 10 mM stock), biotinylated polyGluTyr (10 μg/μL stock), γ-^33P ATP (10 μCi/μL stock) and water was added to each well (90 μL/well) of a Streptavidin Flashplate (Perkin Elmer, Wellesley, Mass.).
Test compound in 100% DMSO (2 μL) was added to the appropriate wells. Diluted GSTEGFR (1:300 dilution in 50 mM Tris at pH 8.0 and 0.1% bovine serum albumin) (10 μL) was added to the wells to initiate the reactions.
The plates were incubated at 30° C. for 1 hr with shaking. The reacted contents were removed and the plates were sequentially washed three times with a 1×PBS stop buffer (300 μL without Magnesium and Calcium) and 100 mM EDTA. After the final wash, the same stop buffer (200 μL) was added to the wells. The plates were then sealed and read on the TopCount scintillation counter.
Test compounds were assayed in triplicate at 16 concentrations at half-log dilutions starting at 200 uM. A maximum and minimum signal for the assay was determined on each plate. The percent inhibition of a test compound was calculated according to the formula
For a series of test concentrations, the IC50 was derived by graphing percent inhibition against the log of the concentrations tested for a given compound. For those compounds without an IC50, the percent inhibition results are shown at a test concentration of 2 μM.

Experiment [4] deals with T4, VEGF-R2 (Rattus norvegicus, UniProt O08775).
T4 construct: polyhistidine (N)
In words: VEGF-R2 Screening Assay. The settings on record: for inhibition at 1 µM: test concentration of 1 μM, read-out: VEGF-R2 percent inhibition. The experiment is classed as biochemical. Here is the method: as §2, §3
The VEGF-R2 enzyme is a fusion protein containing a polyhistidine tag at the N terminus followed by amino acids 786 to 1343 of the rat VEGF-R2 kinase domain (Accession number U93306). The assay used 150 ng of the N-terminal biotinylated peptide biotin-KHKKLAEGSAYEEV-amide (VEGF-R2) per well.
as §1

T4 sequence (O08775 786-1343): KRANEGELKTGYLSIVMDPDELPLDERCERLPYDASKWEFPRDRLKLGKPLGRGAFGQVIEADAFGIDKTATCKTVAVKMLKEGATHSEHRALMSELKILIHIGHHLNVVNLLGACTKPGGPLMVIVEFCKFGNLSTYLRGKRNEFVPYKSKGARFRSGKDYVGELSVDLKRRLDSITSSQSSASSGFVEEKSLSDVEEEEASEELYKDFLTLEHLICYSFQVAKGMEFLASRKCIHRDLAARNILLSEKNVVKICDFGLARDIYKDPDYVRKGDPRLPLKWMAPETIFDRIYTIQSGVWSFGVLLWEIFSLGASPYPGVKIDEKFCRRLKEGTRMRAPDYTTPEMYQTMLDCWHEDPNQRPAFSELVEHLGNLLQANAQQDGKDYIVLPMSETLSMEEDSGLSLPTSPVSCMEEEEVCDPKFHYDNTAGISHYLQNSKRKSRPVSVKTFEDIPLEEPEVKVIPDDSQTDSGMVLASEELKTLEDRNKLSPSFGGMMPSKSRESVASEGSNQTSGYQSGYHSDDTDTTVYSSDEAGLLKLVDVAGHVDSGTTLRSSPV
T1 sequence (P04626 679-1255): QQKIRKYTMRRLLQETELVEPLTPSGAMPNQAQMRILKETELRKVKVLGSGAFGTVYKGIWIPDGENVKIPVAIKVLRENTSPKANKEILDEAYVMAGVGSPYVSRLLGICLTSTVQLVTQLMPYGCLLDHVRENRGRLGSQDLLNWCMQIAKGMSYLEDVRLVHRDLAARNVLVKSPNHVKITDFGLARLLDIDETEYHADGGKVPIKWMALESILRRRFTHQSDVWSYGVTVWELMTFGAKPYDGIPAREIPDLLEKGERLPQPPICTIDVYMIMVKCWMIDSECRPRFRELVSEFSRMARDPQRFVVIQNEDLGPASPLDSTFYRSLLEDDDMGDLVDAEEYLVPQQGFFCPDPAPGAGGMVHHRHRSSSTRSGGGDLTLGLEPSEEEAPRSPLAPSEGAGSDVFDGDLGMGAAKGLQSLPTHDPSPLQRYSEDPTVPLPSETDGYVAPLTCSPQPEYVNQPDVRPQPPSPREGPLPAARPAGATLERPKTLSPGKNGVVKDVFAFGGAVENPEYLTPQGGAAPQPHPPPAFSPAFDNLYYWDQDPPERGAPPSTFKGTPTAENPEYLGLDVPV
T3 sequence (P00533 669-1210 limits assumed): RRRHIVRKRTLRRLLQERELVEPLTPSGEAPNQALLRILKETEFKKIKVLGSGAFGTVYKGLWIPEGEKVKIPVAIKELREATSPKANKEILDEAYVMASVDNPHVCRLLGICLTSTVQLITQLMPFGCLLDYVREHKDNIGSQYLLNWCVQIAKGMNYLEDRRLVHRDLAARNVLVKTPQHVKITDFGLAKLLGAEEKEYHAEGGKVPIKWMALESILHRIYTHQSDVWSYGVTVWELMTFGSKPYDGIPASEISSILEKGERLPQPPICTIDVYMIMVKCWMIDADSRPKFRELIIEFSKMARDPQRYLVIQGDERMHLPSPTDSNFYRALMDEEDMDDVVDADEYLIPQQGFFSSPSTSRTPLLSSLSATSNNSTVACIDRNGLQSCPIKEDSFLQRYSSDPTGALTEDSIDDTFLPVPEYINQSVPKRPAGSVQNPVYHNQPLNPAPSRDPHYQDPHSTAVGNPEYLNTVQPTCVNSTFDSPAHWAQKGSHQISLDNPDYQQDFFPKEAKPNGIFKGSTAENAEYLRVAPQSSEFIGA

The term IC50 denotes the concentration needed to halve the response being measured. In general, inhibition refers to the relative decrease from the control value, in per cent. Turning to `N#Cc1cnc2sc(C(=O)Nc3ncccn3)c3c2c1N(c1c(Cl)ccc2c1OCO2)C(=O)N3` [Cpd 35, 5-(5-chloro-benzo[1,3]dioxol-4-yl)-6-cyano-4-oxo-4,5-dihydro-3H-1-thia-3,5,8-triaza-acenaphthylene-2-carboxylic acid pyrimidin-2-ylamide], the 50% inhibitory concentration (IC50) in experiment [1] was > 1 µM. The inhibition at 1 µM is 16% in experiment [2] and 22% in experiment [4]. Also, the inhibition at 2 µM in experiment [3] was 42%.

`N#Cc1cnc2sc(C(=O)Nc3ccc(CN4CCCC(CO)C4)cc3)c3c2c1N(c1c(Cl)ccc2c1OCO2)C(=O)N3` (stereo not shown) [Cpd 20, 5-(5-chloro-benzo[1,3]dioxol-4-yl)-6-cyano-4-oxo-4,5-dihydro-3H-1-thia-3,5,8-triaza-acenaphthylene-2-carboxylic acid [4-(3-hydroxymethyl-piperidin-1-ylmethyl)-phenyl]-amide]: the figures for the inhibition at 1 µM in experiment [1], in experiment [2] and in experiment [4] were 41%, 21% and 24%, respectively. Also, half-maximal inhibition in experiment [3] (IC50) required 0.91 µM.

For the compound `CN(C(=O)c1sc2ncc(C#N)c3c2c1NC(=O)N3c1c(Cl)ccc2c1OCO2)c1ccc(CN2CCOCC2)cc1` [Cpd 29, 5-(5-chloro-benzo[1,3]dioxol-4-yl)-6-cyano-4-oxo-4,5-dihydro-3H-1-thia-3,5,8-triaza-acenaphthylene-2-carboxylic acid methyl-(4-morpholin-4-ylmethyl-phenyl)-amide], the inhibition at 1 µM in experiment [1] worked out at 0%; in experiment [2], 13%; in experiment [4] it was 10%. The inhibition at 2 µM in experiment [3] was 2%.

Take `N#Cc1cnc2sc(C(=O)Nc3cc[nH]n3)c3c2c1N(c1c(Cl)ccc2c1OCO2)C(=O)N3` [Cpd 33, 5-(5-chloro-benzo[1,3]dioxol-4-yl)-6-cyano-4-oxo-4,5-dihydro-3H-1-thia-3,5,8-triaza-acenaphthylene-2-carboxylic acid (1H-pyrazol-3-yl)-amide]: the inhibition at 1 µM came to 37% in experiment [1], 29% in experiment [2] and 18% in experiment [4]. The same compound yielded an IC50 in experiment [3] of 1.22 µM.

Take `COC1CCN(Cc2ccc(NC(=O)c3sc4ncc(C#N)c5c4c3NC(=O)N5c3ccc(Oc4ccccc4)cc3)cc2)CC1` [Cpd 51, 6-cyano-4-oxo-5-(4-phenoxy-phenyl)-4,5-dihydro-3H-1-thia-3,5,8-triaza-acenaphthylene-2-carboxylic acid [4-(4-methoxy-piperidin-1-ylmethyl)-phenyl]-amide]: the results for the half-maximal inhibitory concentration (IC50) in experiment [1], in experiment [2] and in experiment [4] were > 10 µM, > 100 µM and > 100 µM, respectively. Also, the inhibition at 2 µM in experiment [3] was found to be 48%.

With `N#Cc1cnc2sc(C(=O)Nc3ccc(CN4CCC(F)(F)CC4)cc3)c3c2c1N(c1c(Cl)ccc2c1OCO2)C(=O)N3` [Cpd 54, 5-(5-chloro-benzo[1,3]dioxol-4-yl)-6-cyano-4-oxo-4,5-dihydro-3H-1-thia-3,5,8-triaza-acenaphthylene-2-carboxylic acid [4-(4,4-difluoro-piperidin-1-ylmethyl)-phenyl]-amide], the 50% inhibitory concentration (IC50) in experiment [1] is 3.37 µM; in experiment [2], 15.3 µM; in experiment [4] it was 12.3 µM. The inhibition at 2 µM in experiment [3] worked out at 11%.

With `N#Cc1cnc2sc(C(=O)Nc3ccc(CN4CCC(O)CC4)cc3)c3c2c1N(c1c(Cl)ccc2c1OCO2)C(=O)N3` [Cpd 23, 5-(5-chloro-benzo[1,3]dioxol-4-yl)-6-cyano-4-oxo-4,5-dihydro-3H-1-thia-3,5,8-triaza-acenaphthylene-2-carboxylic acid [4-(4-hydroxy-piperidin-1-ylmethyl)-phenyl]-amide], the inhibition at 1 µM in experiment [1] is 44%; in experiment [2], 16%; in experiment [4], 28%. Moreover, 0.598 µM corresponded to half-maximal inhibition in experiment [3] (IC50).

`N#Cc1cnc2sc(C(=O)N3CCCC(F)C3)c3c2c1N(c1c(Cl)ccc2c1OCO2)C(=O)N3` (stereo not shown) [Cpd 43, 5-(5-chloro-benzo[1,3]dioxol-4-yl)-2-(3-fluoro-piperidine-1-carbonyl)-4-oxo-4,5-dihydro-3H-1-thia-3,5,8-triaza-acenaphthylene-6-carbonitrile]: the IC50 in experiment [1] is 10.6 µM; in experiment [2], > 10 µM; in experiment [4], ~100 µM.

On to `N#Cc1cnc2sc(C(=O)Nc3ccc(CN4CCCC(F)C4)cc3)c3c2c1N(c1c(Cl)ccc2c1OCO2)C(=O)N3` (stereo not shown) [Cpd 44, 5-(5-chloro-benzo[1,3]dioxol-4-yl)-6-cyano-4-oxo-4,5-dihydro-3H-1-thia-3,5,8-triaza-acenaphthylene-2-carboxylic acid [4-(3-fluoro-piperidin-1-ylmethyl)-phenyl]-amide], for which the 50% inhibitory concentration (IC50) in experiment [1] was 1.1 µM; in experiment [2], 1.1 µM; in experiment [4], > 10 µM.

The values are drawn from patent US7427625B2, “Substituted thiatriazaacenaphthylene-6-carbonitrile kinase inhibitors” (Janssen Pharmaceutica, N.V., priority 2006, dated 2008).
